Laboratory results: US6645949B1, “Toxicity of boron compounds to certain arthropods” (University of Florida, priority 2000, dated 2003)
Where “and” joins values, the source holds several entries; their conditions need not be identical. Equal values may be shown once.

System: Diamond Back Moth (DBM; Plutella xylostella)
Test: Control of diamond back moth and inhibition of egg deposition, cage test with sugar pads
Type: in vivo
Conditions: 4% in 10% sucrose
Description: On day one, six cages (24″ cube) were set up with five virgin DBM females and five virgin DBM males, one cabbage seedling, and one sugar pad (10% sucrose) in each cage. The sugar solution in three cages also contained 4% sodium tetraborate (4 g+96 ml, w:v water). The virgin adult DBM were obtained by isolating colony pupae individually in vials two days prior. The adults emerged one day prior to day one and on day one. They were provided a 10% sugar solution with or without sodium tetraborate, as soon as they emerged, by placing the vials with cloth bottoms on cotton pads.
The cages were placed in environmental rooms where the temperature was 25-26° C. and the day length was 14 hours.
Sugar pads were a single layer of rolled cotton approximately 8 cm square. Each pad was soaked in the appropriate solution, placed in the bottom of a petri dish (95×15 mm), and the excess water was pressed out. Each pad held about 30 ml of solution.
The cabbage seedlings were in Descn. No. 12 plastic pots. The surface of the soil was covered with a thin layer of Plaster of Paris.
On each of days two, three, four, five, and six, the sugar pads and plants were changed (once) between 1:00 p.m. and 5:00 p.m.

[1] = Day 7, cages 1-3, one cage per cell
[2] = Total of Days 2-7, cages 1-3, one cage per cell
[3] = Total of Days 2-7 and of 3 cages
[4] = relative to sugar control, Days 2-7

SMILES: O=BOB(O)OB(O)OB=O [Sodium tetraborate, sodium tetraborate]
- Percent Hatch, Average (Average of the 3 cages, Days 2-7): 66.4%
- Number of Eggs, Average (Average per cage over Days 2-7): 354.7
- Number of Larvae, Average (Average per cage over Days 2-7): 235.3
- Number of Dead Females (Day 2, Total of 3 cages): 0
- Number of Dead Males (Day 2, Total of 3 cages): 0
- Number of Eggs (Day 2, Total of 3 cages): 202
- Number of Larvae (Day 2, Total of 3 cages): 99
- Percent Hatch (Day 2, Total): 44.8%
- Number of Dead Females (Day 2, cages 1-3, five females per cage): 0
- Number of Dead Males (Day 2, cages 1-3, five males per cage): 0
- Percent Hatch (Day 2, cages 1-3, one cage per cell): 40.9% and 58.2% and 35.4%
- Number of Dead Females (Day 3, Total of 3 cages): 1
- Number of Dead Males (Day 3, Total of 3 cages): 0
- Number of Eggs (Day 3, Total of 3 cages): 499
- Number of Larvae (Day 3, Total of 3 cages): 388
- Percent Hatch (Day 3, Total): 79.9%
- Number of Dead Males (Day 3, cages 1-3, five males per cage): 0
- Percent Hatch (Day 3, cages 1-3, one cage per cell): 73.7% and 74.2% and 91.7%
- Number of Dead Females (Day 4, Total of 3 cages): 1
- Number of Dead Males (Day 4, Total of 3 cages): 0
- Number of Eggs (Day 4, Total of 3 cages): 185
- Number of Larvae (Day 4, Total of 3 cages): 113
- Percent Hatch (Day 4, Total): 57.0%
- Number of Dead Males (Day 4, cages 1-3, five males per cage): 0
- Percent Hatch (Day 4, cages 1-3, one cage per cell): 47.5% and 52.2% and 71.3%
- Number of Dead Females (Day 5, Total of 3 cages): 1
- Number of Dead Males (Day 5, Total of 3 cages): 2
- Number of Eggs (Day 5, Total of 3 cages): 119
- Number of Larvae (Day 5, Total of 3 cages): 70
- Percent Hatch (Day 5, Total): 54.3%
- Number of Dead Females (Day 6, Total of 3 cages): 3
- Number of Dead Males (Day 6, Total of 3 cages): 4
- Number of Eggs (Day 6, Total of 3 cages): 58
- Number of Larvae (Day 6, Total of 3 cages): 36
- Percent Hatch (Day 6, Total): 63.3%
- Number of Dead Females (Day 6, cages 1-3, five females per cage): 1
- Number of Dead Females (Day 7, Total of 3 cages): 6
- Number of Dead Males (Day 7, Total of 3 cages): 4
- Number of Eggs (Day 7, Total of 3 cages): 1
- Number of Larvae (Day 7, Total of 3 cages): 0
- Number of Live Females (Day 7, Total of 3 cages): 2
- Number of Live Males (Day 7, Total of 3 cages): 2
- Percent Hatch (Day 7, Total): 0.0%
- Number of Dead Males (Day 7, cages 1-3, five males per cage): 2 and 1
- Number of Larvae [1]: 0
- Percent Hatch [1]: 0.0%
- Percent Hatch, Total (Days 2-7 together, cages 1-3, one cage per cell): 60.9% and 65.5% and 72.9%
- Number of Eggs, Total [2]: 419 and 261 and 384
- Number of Larvae, Total [2]: 255 and 171 and 280
- Number of Eggs, Total [3]: 1064
- Number of Larvae, Total [3]: 706
- Number of Eggs, % of sugar [4]: 57.1%
- Number of Larvae, % of sugar [4]: 64.2%
